Columns and labels:
[1] = test system: exosome fraction B derived from human breast cancer cells (MDA-MB-231-luc-D3H2LN); experiment: Extraction of microRNA (miR-21) from exosomes derived from human breast cancer cells, real-time PCR; type: biochemical; settings: 100 μM peptide, 1×10^11 particles/mL exosomes, 0.4 U/μL RNase inhibitor, 37° C., 24 hours; without peptide 8×10^−14M
Procedure: A cell suspension of cell line MDA-MB-231-luc-D3H2LN derived from human breast cancer (=MM231-luc-D3H2LN, provided by the National Cancer Center Research Institute) was seeded in a dish containing RPMI 1640 medium (manufactured by Thermo Fisher Scientific Inc.) containing 10% fetal bovine serum. Subsequently, the cell line was grown at 37° C. under the condition that CO2 concentration was set to 5 volume % using a CO2 incubator, and then the medium was replaced with Advanced RPMI 1640 medium (manufactured by Thermo Fisher Scientific Inc.), followed by culturing for 48 hours, and therefore the culture solution containing exosomes was obtained. This culture solution was centrifuged at 2,000 G for 10 minutes to remove the precipitate, followed by centrifugation at 110,000 G for 70 minutes to precipitate the exosomes, and therefore an exosome fraction B was recovered. The recovered exosome fraction B was suspended in a phosphate buffered saline (PBS) and then stored at 4° C. Storage samples were lightly suspended with a vortex mixer (vibration mixer) before use.
MicroRNA (miR-21 or miR-16) in the reaction solution was subjected to reverse transcription PCR using reverse transcription primers (manufactured by Thermo Fisher Scientific Inc., Taqman microRNA Assays, RT primers, and hsa-mir-21 or hsa-mir-16) and a reverse transcriptase (manufactured by Thermo Fisher Scientific Inc., Taqman microRNA RT kit).
(§1) The reverse transcription PCR solution obtained by the above described method was processed and by comparing the number of cycles on a calibration curve of microRNA using Taqman Assay primer (manufactured by Thermo Fisher Scientific Inc., Taqman microRNA Assays, Taqman Assay primer, and hsa-mir-21 or hsa-mir-16) and Real-Time PCR Master Mixes (manufactured by Thermo Fisher Scientific Inc., TaqMan Universal PCR Master Mix II, w/UNG) with StepOnePlus Real-Time PCR System, MiR-21 or miR-16 was quantified. The calibration curve of microRNA was created using synthetic miR-21 (manufactured by Sigma-Aldrich Co. LLC.) or synthetic miR-16 (manufactured by Sigma-Aldrich Co. LLC.).
10 μL of the exosome fraction was prepared such that PBS contains 1×10^11 particles/mL of the exosome fraction B derived from human breast cancer cells, various antimicrobial peptides shown in the following Table 2 adjusted to 100 μM, and 0.4 U/μL of RNase inhibitor (manufactured by Toyobo Co., Ltd.), followed by incubation by being left to stand at 37° C. for 24 hours.
MicroRNA eluted into the solution was purified and recovered from the incubated solution of Example 10 above and Comparative Example 6 above by the following method.
First, 160 μL of PBS was added to the reaction solution, and then the solution was added to a centrifugal filter (manufactured by Millipore Corporation, Amicon Ultra 0.5 mL, 100K filter) and centrifuged at 14,000 G for 2 minutes. Subsequently, 100 μL of the centrifuged filtrate was recovered and introduced into a 1.5 mL tube. Next, 350 μL of RLT buffer (manufactured by QIAGEN, attached with RNeasy mini kit) and 675 μL of ethanol were added and mixed in the 1.5 mL tube. The obtained mixture was separated into two parts, and each of the separates was added onto a spin column (manufactured by QIAGEN, attached with RNeasy mini kit) followed by centrifugation at 8,000 G for 15 seconds, and the entire amount of the mixture was passed through the spin column. Thereafter, 500 μL of RPE buffer (manufactured by QIAGEN, attached with RNeasy mini kit) was added thereto and centrifuged at 8,000 G for 15 seconds. Furthermore, 500 μL of the RPE buffer was added to the spin column once more and centrifuged at 8,000 G for 15 seconds. Thereafter, the spin column was centrifuged at 14,000 G for 1 minute to remove the residual RPE buffer. Next, 30 μL of RNase free water (manufactured by QIAGEN, attached with RNeasy mini kit) was added to the spin column, left for 1 minute, and then centrifuged at 14,000 G for 1 minute, and the eluate obtained thereby was recovered. […]

[2] = test system: exosome derived from human prostate cancer cells (PC3ML); experiment: Extraction of microRNA (miR-21) from exosome derived from prostate cancer cells, real-time PCR; type: biochemical; settings: 100 μM peptide, 1×10^11 particles/mL PC3ML exosomes, 0.4 U/μL RNase inhibitor, 37° C., 24 hours; without peptide 3×10^−14M
Procedure: A cell suspension of cell line PC3ML derived from human prostate cancer cells (provided by the National Cancer Center Research Institute) was seeded in a dish containing RPMI 1640 medium (manufactured by Thermo Fisher Scientific Inc.) containing 10% fetal bovine serum. Subsequently, the cell line was grown at 37° C. under the condition that CO2 concentration was set to 5 volume % using a CO2 incubator, and then the medium was replaced with Advanced RPMI 1640 medium (manufactured by Thermo Fisher Scientific Inc.), followed by culturing for 48 hours, and the culture solution containing exosomes was obtained. This culture solution was centrifuged at 2,000 G for 10 minutes to remove the precipitate, followed by centrifugation at 110,000 G for 70 minutes to precipitate the exosomes, and therefore an exosome fraction was recovered. The recovered exosome fraction was suspended in a phosphate buffered saline (PBS) and then stored at 4° C. Storage samples were lightly suspended with a vortex mixer (vibration mixer) before use. […]
as §1, with “The calibration curve of microRNA was created using synthetic miR-21 (manufactured by Sigma-Aldrich Co. LLC.) or synthetic miR-16 (manufactured by Sigma-Aldrich Co. LLC.).” left out
The amount of microRNA (miR-21) contained in the recovered eluate was quantified by the above described real-time PCR method. […] In addition, the destructive activity of the antimicrobial peptide used was evaluated on the basis of the following criteria based on the quantitative result of the concentration of microRNA (miR-21) performed by the real-time PCR method. […]

**Q.** What does the source list for Magainin 2?
**A.** Destructive activity (concentration of microRNA miR-21 in eluate) [1]: A (the concentration of microRNA is 50×10^−14M or more); Destructive activity (concentration of microRNA miR-21 in eluate) [2]: B (the concentration of microRNA is 5×10^−14M to 10×10^−14M)

— patent US10071133B2, “Method for destroying exosomes, kit for destroying exosomes, and method for isolating exosomes derived from normal cells” (priority 2015, dated 2018)
